Values quoted from earlier work in US20250243467A1, “BONE MARROW ORGANOIDS PRODUCED FROM INDUCED PLURIPOTENT STEM CELLS AND USES OF THESE ORGANOIDS” (PRISM INGENUITY GMBH, priority 2022, published 2025).

What was measured:
[1] = biological target: ALK6 (Homo sapiens, UniProt O00238)
[2] = biological target: ALK3 (Homo sapiens, UniProt P36894)
[3] = biological target: T1, ALK7 (Homo sapiens, UniProt Q8NER5); details: competing for the ATP binding site
T1 sequence (Q8NER5 21-493): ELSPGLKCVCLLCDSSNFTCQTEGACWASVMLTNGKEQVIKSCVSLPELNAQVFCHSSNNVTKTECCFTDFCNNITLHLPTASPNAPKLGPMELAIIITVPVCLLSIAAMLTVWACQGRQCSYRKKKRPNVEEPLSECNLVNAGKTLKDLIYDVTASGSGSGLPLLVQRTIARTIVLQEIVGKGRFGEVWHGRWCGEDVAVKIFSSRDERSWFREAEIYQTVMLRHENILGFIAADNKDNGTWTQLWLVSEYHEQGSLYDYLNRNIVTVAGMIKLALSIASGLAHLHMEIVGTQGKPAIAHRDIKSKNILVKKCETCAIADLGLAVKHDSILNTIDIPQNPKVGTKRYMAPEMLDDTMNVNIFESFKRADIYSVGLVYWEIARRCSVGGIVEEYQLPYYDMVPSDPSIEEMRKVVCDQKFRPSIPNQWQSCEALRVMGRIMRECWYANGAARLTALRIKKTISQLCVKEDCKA

[4] = biological target: ALK2 (Homo sapiens, UniProt Q04771)
Chain of ALK2 (Q04771 21-509, species assumed): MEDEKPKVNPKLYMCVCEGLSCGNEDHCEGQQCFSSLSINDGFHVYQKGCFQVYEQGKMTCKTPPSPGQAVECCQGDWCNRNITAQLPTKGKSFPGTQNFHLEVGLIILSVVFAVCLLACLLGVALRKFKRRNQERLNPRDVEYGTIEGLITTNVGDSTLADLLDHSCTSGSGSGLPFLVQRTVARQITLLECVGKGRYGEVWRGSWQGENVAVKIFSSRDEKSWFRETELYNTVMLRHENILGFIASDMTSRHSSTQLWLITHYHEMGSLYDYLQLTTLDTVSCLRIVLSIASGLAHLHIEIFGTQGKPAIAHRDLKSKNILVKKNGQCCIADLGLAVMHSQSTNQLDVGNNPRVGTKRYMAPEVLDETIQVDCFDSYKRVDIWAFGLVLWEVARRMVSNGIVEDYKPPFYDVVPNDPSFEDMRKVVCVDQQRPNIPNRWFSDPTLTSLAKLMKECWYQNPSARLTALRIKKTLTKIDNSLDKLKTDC

Chain of ALK6 (O00238 14-502): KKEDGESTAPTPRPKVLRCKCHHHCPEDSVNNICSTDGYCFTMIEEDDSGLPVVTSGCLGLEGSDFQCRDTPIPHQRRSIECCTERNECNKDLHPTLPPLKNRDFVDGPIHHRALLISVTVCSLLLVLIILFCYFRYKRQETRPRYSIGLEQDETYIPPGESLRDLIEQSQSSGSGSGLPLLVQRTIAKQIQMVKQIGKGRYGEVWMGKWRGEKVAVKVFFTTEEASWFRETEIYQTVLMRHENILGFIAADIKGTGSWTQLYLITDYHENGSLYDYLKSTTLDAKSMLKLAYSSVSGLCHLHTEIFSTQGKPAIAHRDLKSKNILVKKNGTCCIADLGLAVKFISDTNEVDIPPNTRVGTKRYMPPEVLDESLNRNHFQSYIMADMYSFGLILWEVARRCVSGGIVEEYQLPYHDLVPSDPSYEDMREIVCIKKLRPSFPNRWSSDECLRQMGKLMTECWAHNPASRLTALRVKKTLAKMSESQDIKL
Chain of ALK3 (P36894 24-532, species assumed): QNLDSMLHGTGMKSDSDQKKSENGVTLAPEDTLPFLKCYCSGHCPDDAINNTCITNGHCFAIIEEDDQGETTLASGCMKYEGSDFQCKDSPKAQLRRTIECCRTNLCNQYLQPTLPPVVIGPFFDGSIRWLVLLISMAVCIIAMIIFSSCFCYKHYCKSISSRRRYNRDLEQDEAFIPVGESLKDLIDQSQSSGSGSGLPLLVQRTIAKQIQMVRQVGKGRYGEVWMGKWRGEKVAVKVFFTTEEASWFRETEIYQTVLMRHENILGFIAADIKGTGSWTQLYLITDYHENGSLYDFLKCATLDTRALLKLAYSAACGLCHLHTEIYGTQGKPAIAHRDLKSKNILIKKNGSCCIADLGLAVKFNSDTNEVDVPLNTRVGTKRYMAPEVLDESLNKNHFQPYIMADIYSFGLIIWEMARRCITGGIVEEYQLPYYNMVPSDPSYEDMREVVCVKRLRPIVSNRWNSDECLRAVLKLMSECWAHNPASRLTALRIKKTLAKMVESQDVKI

inhibition of BMP type I receptor ALK6 [1]: does not inhibit
inhibition of BMP type I receptor ALK3 [2]: does not inhibit
inhibition of ALK7 [3]: inhibits
inhibition of BMP type I receptor ALK2 [4]: does not inhibit
SMILES: NC(=O)c1ccc(-c2nc(-c3ccc4c(c3)OCO4)c(-c3ccccn3)[nH]2)cc1 [SB431542]
